Results: patent US20250179299A1, “DYES FOR MONITORING CELL STATES” (SUNNYBROOK RESEARCH INSTITUTE, priority 2022, published 2025)
Counter-ions that a name gives are not always drawn.

Columns and labels:
MCF-7 tumoral cells = test: Staining of live MCF-7 cells with 1 μM dye (microscopy); type: cell-based, human
Protocol: FIGS. 14A-J depict microscopy images showing staining of MCF7 cells with 1 μM of the following dyes: MT3 (FIG. 14A), MT20 (FIG. 14B), MT21 (FIG. 14C), MT22 (FIG. 14D), MT23 (FIG. 14E), MT24 (FIG. 14F), MT25 (FIG. 14G), MT26 (FIG. 14H), MT27 (FIG. 14I), and MT28 (FIG. 14J). Scale bar, 25 μm.
Used at a standard 1 μM concentration, the proposed dyes produce varying staining patterns and intensities. Furthermore, the proposed dyes display fluorescent properties only when labelling cell organelles and can therefore be used directly without washing steps.

[1] = system: MCF10A epithelial breast cells; test: Staining of control and drug-treated MCF10A cells; type: cell-based
Protocol: FIGS. 2A-E depict microscopy images showing fluorescence change of 1 μM MT3 and reference dyes following drug treatment of non-tumorigenic MCF10A epithelial breast cells.
(§1) MCF10A cells were cultured for 24 hrs prior to 72 hr dual treatment with 0.312 μM each of AZD 5991 (Bcl-XL inhibitor) and A1331852 (MCL-1 inhibitor) or DMSO (solvent control). FIG. 2A: cells were stained with Hoechst (left images), TMRE (middle images) and MT3 (right images). Scale bar, 100 μm. FIGS. 2B-E: comparison of the staining pattern of Hoechst, MT3, and TMRE in control and treated MCF10A epithelial breast cells.
(§2) These changes in fluorescence emission properties were shared by all dyes tested (MT2-MT5).
In the figures, Hoechst stains DNA in the nucleus, and if the nucleus condenses that staining becomes bright (i.e., more dye per unit area). […] In FIG. 2E, the TMRE staining has almost completely disappeared in drug treated cells, whereas MT3 is staining the nuclei. […] FIGS. 7 and 8 have similar lack of staining for TMRE, FIG. 7 is similar to FIG. 4 where the staining with Hoechst and MT3 are mutually exclusive, and FIG. 8 is similar to FIG. 3 where MT3 is staining nuclei where the Hoechst has not condensed.

[2] = system: primary cells (lymphocytes) and cell lines (tumoral); test: Fluorescence change of dye-stained cells after treatment with agents that induce cell death; type: cell-based; conditions: for fluorescence intensity relative to MT4 and MT5 / signal-to-noise ratio relative to MT4 and MT5: low micromolar staining concentrations (e.g., 1 μM); for change in fluorescence intensity of the dye after treatment with cell-death inducing agents: staurosporine, or AZD 5991 plus A1331852, in cells sensitive to these drugs but not in chemoresistant cells
Protocol: FIG. 1 depicts microscopy images showing fluorescence change of MT2 and reference dyes following drug treatment of primary lymphocytes. Primary lymphocytes were cultured for 24 hrs with 1 μM Staurosporine (STS, pan-kinase inhibitor) or DMSO (solvent control). Cells were stained with Hoechst (left images), tetramethylrhodamine ethyl ester (TMRE) (middle images) and MT2 (right images). Scale bar, 20 μm.
as §1
FIG. 3 depicts microscopy images showing fluorescence change of 1 μM MT3 and reference dyes following drug treatment of CAMA-1 luminal-type human breast cancer cells. CAMA-1 cells were cultured for 24 hrs prior to 72 hr dual treatment with 0.312 μM each of AZD 5991 (Bcl-XL inhibitor) and A1331852 (MCL-1 inhibitor) or DMSO (solvent control). Cells were stained with Hoechst (left images), TMRE (middle images) and MT3 (right images). Scale bar, 100 μm.
FIG. 4 depicts microscopy images showing fluorescence change of MT3 and reference dyes following drug treatment of MCF-7 human epithelial breast adenocarcinoma cells. MCF-7 cells were cultured for 24 hrs prior to 72 hr dual treatment with 0.312 μM each of AZD 5991 (Bcl-XL inhibitor) and A1331852 (MCL-1 inhibitor) or DMSO (solvent control). Cells were stained with Hoechst (left images), TMRE (middle images) and MT3. Scale bar, 100 μm.
(§3) FIG. 5 depicts microscopy images showing fluorescence change of MT3 and reference dyes following drug treatment of Zr-75-1 epithelial breast ductal carcinoma cells. Zr-75-1 cells were cultured for 24 hrs prior to 72 hr dual treatment with 0.312 μM each of AZD 5991 (Bcl-XL inhibitor) and A1331852 (MCL-1 inhibitor) or DMSO (solvent control). Cells were stained with Hoechst (left images), TMRE (middle images) and MT3 (right images). Scale bar, 100 μm.
FIG. 6 depicts microscopy images showing fluorescence change of MT3 and reference dyes following drug treatment of MDA-MB-231 epithelial breast adenocarcinoma cells. MDA-MB-231 cells were cultured for 24 hrs prior to 72 hr dual treatment with 0.312 μM each of AZD 5991 (Bcl-XL inhibitor) and A1331852 (MCL-1 inhibitor) or DMSO (solvent control). Cells were stained with Hoechst (left images), TMRE (middle images) and MT3 (right images). Scale bar, 100 μm.
FIG. 7 depicts microscopy images showing fluorescence change of MT3 and reference dyes following drug treatment of MDA-MB-468 epithelial breast adenocarcinoma cells. MDA-MB-468 cells were cultured for 24 hrs prior to 72 hr dual treatment with 0.312 μM each of AZD 5991 (Bcl-XL inhibitor) and A1331852 (MCL-1 inhibitor) or DMSO (solvent control). Cells were stained with Hoechst (left images), TMRE (middle images) and MT3. Scale bar, 100 μm.
FIG. 8 depicts microscopy images showing fluorescence change of MT3 and reference dyes following drug treatment of T47D epithelial breast ductal carcinoma cells. T47D cells were cultured for 24 hrs prior to 72 hr dual treatment with 0.312 μM each of AZD 5991 (Bcl-XL inhibitor) and A1331852 (MCL-1 inhibitor) or DMSO (solvent control). Cells were stained with Hoechst (left images), TMRE (middle images) and MT3 (right images). Scale bar, 100 μm.
as §2

[3] = system: MCF-7 breast epithelial cancer cells; test: MT2 staining of MCF-7 cells treated with inducers of autophagy, ER stress or apoptosis; type: cell-based, human; conditions: 1-5 μM MT2; Rapamycin, Thapsigargin, or TNFα and CHx; excitation 488 nm, emission 520, 600, 690 nm
Protocol: FIG. 9 depicts microscopy images showing fluorescence change of MT2 and reference dyes following drug treatment of MCF-7 human epithelial breast adenocarcinoma cells. MCF-7 cells were cultured for 12 hrs in standard conditions and treated with drugs to induce autophagy (Rapamycin), endoplasmic reticulum stress (Thapsigargin), apoptosis (Tumor Necrosis Factor alpha, TNFα, and Cyclohexamide, CHx), or solvent control (DMSO). Dye MT2 was excited at 488 nm, and emission was simultaneously collected at three wavelengths, 520 nm (Green), 600 nm (Red), and 690 (Far Red) nm.
The dye was excited at 488 nm, and emission was simultaneously collected at three wavelengths, 520 (Green), 600 (Red), and 690 (Far Red) nm. […] Image analysis by machine-learning algorithms trained on measurements of cellular intensity, morphology, and texture features permits to distinguish treatment-specific phenotypic states.

[4] = system: Zr-75-1 epithelial breast ductal carcinoma cells; test: MT3 staining of drug-treated chemoresistant Zr-75-1 cells; type: cell-based; conditions: 72 hr 0.312 μM each AZD 5991 and A1331852
Protocol: as §3, §2

## CC(C)=CCN(CC=C(C)C)c1ccc2cc(/C=C/c3cc[n+](CCCS(=O)(=O)[O-])cc3)ccc2c1F [MT25, 4-[(1E)-2-{6-[Bis(3-methylbut-2-en-1-yl)amino]-5-fluoronaphthalen-2-yl}ethenyl]-1-(3-sulfopropyl)pyridin-1-ium]
MCF-7 tumoral cells
  cell permeability: cell-permeable

## Cc1cccc(N(c2cccc(C)c2)c2ccc3cc(/C=C/c4cc[n+](CCCCS(=O)(=O)[O-])cc4)ccc3c2)c1 [MT21, (E)-4-(4-(2-(6-(di-m-tolylamino)naphthalen-2-yl)vinyl)pyridin-1-ium-1-yl)butane-1-sulfonate]
MCF-7 tumoral cells
  ability to stain live cells: able to stain live cells
  cell permeability: cell-permeable

## Cc1cccc(N(c2cccc(C)c2)c2ccc3cc(/C=C/c4cc[n+](CCC[N+](C)(C)C)cc4)ccc3c2)c1 [MT27, 4-[(1E)-2-{6-[Bis(3-methylphenyl)amino]naphthalen-2-yl}ethenyl]-1-[3-(trimethylazaniumyl)propyl]pyridin-1-ium dibromide]
MCF-7 tumoral cells
  ability to stain live cells: able to stain live cells
  cell permeability: cell-permeable

## tetramethylrhodamine ethyl ester [TMRE, reference compound]
[1]; 72 hr 0.312 μM each AZD 5991 and A1331852 (FIGS. 2E and 3)
  staining of drug-treated dying cells relative to control cells: low staining

## Cc1cccc(N(c2cccc(C)c2)c2ccc3cc(/C=C/c4cc[n+](CC(O)C[N+](C)(C)CCO)cc4)ccc3c2)c1 (centres unmarked) [MT28, 4-[(1E)-2-{6-[Bis(3-methylphenyl)amino]naphthalen-2-yl}ethenyl]-1-{2-hydroxy-3-[(2 hydroxyethyl)dimethylazaniumyl]propyl}pyridin-1-ium dibromide]
MCF-7 tumoral cells
  ability to stain live cells: able to stain live cells
  cell permeability: cell-permeable

## Cc1cccc(N(c2cccc(C)c2)c2ccc3cc(/C=C(\F)c4cc[n+](CCCS(=O)(=O)[O-])cc4)ccc3c2)c1 [MT24, 4-[(1Z)-2-{6-[Bis(3-methylphenyl)amino]naphthalen-2-yl}-1-fluoroethenyl]-1-(3-sulfopropyl)pyridin-1-ium]
MCF-7 tumoral cells
  cell permeability: cell-permeable

## Cc1cccc(N(c2cccc(C)c2)c2ccc3cc(/C=C/c4cc[n+](CCCS(=O)(=O)[O-])cc4F)ccc3c2)c1 [MT23, 4-[(1E)-2-{6-[Bis(3-methylphenyl)amino]naphthalen-2-yl}ethenyl]-3-fluoro-1-(3-sulfopropyl)pyridin-1-ium]
MCF-7 tumoral cells
  cell permeability: cell-permeable

## CC(C)=CCN(CC=C(C)C)c1ccc2cc(/C=C/c3cc[n+](CCCS(=O)(=O)[O-])cc3)ccc2c1 [MT22, (E)-3-(4-(2-(6-(bis(3-methylbut-2-en-1-yl)amino)naphthalen-2-yl)vinyl)pyridin-1-ium-1-yl)propane-1-sulfonate]
MCF-7 tumoral cells
  ability to stain live cells: able to stain live cells
  cell permeability: cell-permeable

## CC(C)CCN(CCC(C)C)c1ccc2cc(/C=C/c3cc[n+](CCCS(=O)(=O)[O-])c4ccccc34)ccc2c1 [MT2, 4-(2-[6-(diisopentylamino)-2-naphthalenyl]ethenyl)-1-(3-sulfopropyl)quinolinium inner salt]
[2]
  fluorescence intensity relative to MT4 and MT5: better fluorescence intensity
  signal-to-noise ratio relative to MT4 and MT5: better signal-to-noise ratios
  change in fluorescence intensity of the dye after treatment with cell-death inducing agents: increase in fluorescence intensity
[3]
  staining pattern across phenotypic states (autophagy, ER stress, apoptosis): different staining patterns

## Cc1cccc(N(c2cccc(C)c2)c2ccc3cc(/C=C/c4cc[n+](CCCS(=O)(=O)[O-])cc4)c4ccccc4c3c2)c1 [MT20, (E)-3-(4-(2-(3-(di-m-tolylamino)phenanthren-9-yl)vinyl)pyridin-1-ium-1-yl)propane-1-sulfonate]
MCF-7 tumoral cells
  ability to stain live cells: able to stain live cells
  cell permeability: cell-permeable

## Cc1cccc(N(c2cccc(C)c2)c2ccc3cc(/C=C/c4cc[n+](CCCS(=O)(=O)[O-])cc4)ccc3c2)c1 [MT3, 4-(2-[6-(dim-tolylamino)-2-naphthalenyl]ethenyl)-1-(3-sulfopropyl) pyridinium Inner Salt]
MCF-7 tumoral cells
  ability to stain live cells: able to stain live cells
  cell permeability: cell-permeable
[2]
  fluorescence intensity relative to MT4 and MT5: better fluorescence intensity
  signal-to-noise ratio relative to MT4 and MT5: better signal-to-noise ratios
  change in fluorescence intensity of the dye after treatment with cell-death inducing agents: increase in fluorescence intensity
[4]
  staining of cells with condensed nuclei (Hoechst staining): did not show bright MT3 staining
[1]; MCF10A, 1 μM MT3, 72 hr 0.312 μM each AZD 5991 and A1331852, normal cells stained with different intensities
  staining intensity of drug-treated dying cells: very brightly

## CC(C)=CCN(CC=C(C)C)c1ccc2cc(/C=C/c3cc[n+](CCCS(=O)(=O)[O-])cc3)ccc2c1C(F)(F)F [MT26, 4-[(1E)-2-{6-[Bis(3-methylbut-2-en-1-yl)amino]-5-(trifluoromethyl)naphthalen-2-yl}ethenyl]-1-(3-sulfopropyl)pyridin-1-ium]
MCF-7 tumoral cells
  cell permeability: cell-permeable
